# Measured values: patent US20260306644A1, “ANTIBODY RECRUITING MOLECULES FOR THE TREATMENT OF CORONAVIRUS DISEASE-19” (priority 2023, published 2026)
# pIC50: −log10 of the molar value. Several values for one entry are separate records, joined by “and”; a condition that tells them apart may be missing. Equal values may be shown once. Read-outs that look alike come from different tables or passages of the source. Positions of bridges follow the written chain, without caps; N, C: chain ends. Residues, ends and D or L forms follow the SMILES beside them.
# Target: T1, SARS-CoV-2 Spike A (wild-type) (Severe acute respiratory syndrome coronavirus 2, UniProt P0DTC2)
# T1 construct: purchased Meso Scale Diagnostics, LLC V-PLEX SARS-CoV-2 Panel 13 (ACE2) Kit / Panel 23 (ACE2) Kit
# Assay: MSD ACE2 competition assay (inhibition of Spike binding with ACE2, ECL), A (wild-type)
# [1] = IC50 Wild Type, Wild Type Spike
# [2] = read-out: IC50, Wild Type, Wild Type
SMILES,pIC50 [1],further results
CC[C@H](C)[C@H](NC(=O)[C@H](CC(C)C)NC(=O)[C@H](CC(=O)O)NC(=O)[C@H](CO)NC(=O)[C@@H](NC(=O)[C@H](CCCNC(=N)N)NC(=O)[C@H](CCSC)NC(=O)[C@@H]1CSSC[C@H](NC(=O)[C@H](CC(C)C)NC(=O)[C@H](CCCNC(=N)N)NC(=O)[C@H](CCSC)NC(=O)[C@@H](NC(=O)[C@H](CCC(=O)O)NC(=O)[C@H](Cc2ccc(O)cc2)NC(=O)[C@@H](NC(=O)[C@H](CCCCN)NC(=O)[C@H](CCC(N)=O)NC(=O)[C@H](CC(C)C)NC(=O)[C@@H](NC(=O)[C@H](Cc2c[nH]c3ccccc23)NC(=O)[C@H](CCC(=O)O)NC(=O)[C@H](CCCCN)NC(=O)[C@@H](N)CC(=O)O)[C@@H](C)CC)[C@@H](C)CC)[C@@H](C)CC)C(=O)N[C@@H](CC(=O)O)C(=O)N[C@@H](CCC(=O)O)C(=O)N[C@@H](CC(C)C)C(=O)NCC(=O)N[C@@H](Cc2c[nH]cn2)C(=O)N[C@@H](C)C(=O)N[C@@H](CCC(=O)O)C(=O)N[C@@H](C)C(=O)N1)C(C)C)C(=O)N[C@@H](Cc1ccc(O)cc1)C(=O)N[C@@H](CCC(=O)O)C(=O)N[C@@H](Cc1ccccc1)C(=O)N[C@@H](CCSC)C(=O)N[C@@H](CCCCN)C(=O)N[C@@H](CCCCN)C(=O)NCC(N)=O [Compound 138] (H-DKEWILQKIYEIMRLCDELGHAEACMRVSDLIYEFMKKG-NH2; disulfide 16-25),,"pIC50 (IC50, Wild Type, Wild Type): 7.90"
CC[C@H](C)[C@H](NC(C)=O)C(=O)N[C@@H](CC(C)C)C(=O)N[C@@H](CCC(N)=O)C(=O)N[C@@H](CCCCN)C(=O)N[C@H](C(=O)N[C@@H](Cc1ccc(O)cc1)C(=O)N[C@@H](CCC(=O)O)C(=O)N[C@H](C(=O)N[C@@H](CCSC)C(=O)N[C@@H](CCCNC(=N)N)C(=O)N[C@@H](CC(C)C)C(=O)N[C@@H](CC(C)C)C(=O)N[C@@H](CC(=O)O)C(=O)N[C@@H](CCC(=O)O)C(=O)N[C@@H](CC(C)C)C(=O)NCC(=O)N[C@@H](Cc1c[nH]cn1)C(=O)N[C@@H](C)C(=O)N[C@@H](CCC(=O)O)C(=O)N[C@@H](C)C(=O)N[C@@H](CO)C(=O)N[C@@H](CCSC)C(=O)N[C@@H](CCCNC(=N)N)C(=O)N[C@H](C(=O)N[C@@H](CO)C(=O)N[C@@H](CC(=O)O)C(=O)N[C@@H](CC(C)C)C(=O)N[C@H](C(=O)N[C@@H](Cc1ccc(O)cc1)C(=O)N[C@@H](CCC(=O)O)C(=O)N[C@@H](Cc1ccccc1)C(=O)N[C@@H](CCSC)C(=O)N[C@@H](CCCCN)C(=O)N[C@@H](CCCCN)C(=O)NCC(=O)NCCOCCOCCOCCOCCOCCOCCOCCOCCC(=O)NCCOCCOCCOCCOCCOCCOCCOCCOCCC(=O)N[C@@H](CC(=O)O)C(=O)N[C@H]1CSSC[C@@H](C(=O)N[C@H](C(N)=O)[C@@H](C)O)NC(=O)[C@H](Cc2c[nH]c3ccccc23)NC(=O)[C@H](C(C)C)NC(=O)[C@H](CC(C)C)NC(=O)[C@H](CCC(=O)O)NC(=O)CNC(=O)[C@H](CC(C)C)NC(=O)[C@H](Cc2c[nH]cn2)NC(=O)[C@H](Cc2c[nH]c3ccccc23)NC(=O)[C@H](C)NC1=O)[C@@H](C)CC)C(C)C)[C@@H](C)CC)[C@@H](C)CC [Compound 155],8.12,
CC[C@H](C)[C@H](NC(=O)[C@H](CC(C)C)NC(=O)[C@H](CC(=O)O)NC(=O)[C@H](CO)NC(=O)[C@@H](NC(=O)[C@H](CCCNC(=N)N)NC(=O)[C@H](CCSC)NC(=O)[C@@H]1CSSC[C@H](NC(=O)[C@H](CC(C)C)NC(=O)[C@H](CCCNC(=N)N)NC(=O)[C@H](CCSC)NC(=O)[C@@H](NC(=O)[C@H](CCC(=O)O)NC(=O)[C@H](Cc2ccc(O)cc2)NC(=O)[C@@H](NC(=O)[C@H](CCCCN)NC(=O)[C@H](CCC(N)=O)NC(=O)[C@H](CC(C)C)NC(=O)[C@@H](NC(=O)[C@H](Cc2c[nH]c3ccccc23)NC(=O)[C@H](CCC(=O)O)NC(=O)[C@H](CCCCN)NC(=O)[C@H](CC(=O)O)NC(C)=O)[C@@H](C)CC)[C@@H](C)CC)[C@@H](C)CC)C(=O)N[C@@H](CC(=O)O)C(=O)N[C@@H](CCC(=O)O)C(=O)N[C@@H](CC(C)C)C(=O)NCC(=O)N[C@@H](Cc2c[nH]cn2)C(=O)N[C@@H](C)C(=O)N[C@@H](CCC(=O)O)C(=O)N[C@@H](C)C(=O)N1)C(C)C)C(=O)N[C@@H](Cc1ccc(O)cc1)C(=O)N[C@@H](CCC(=O)O)C(=O)N[C@@H](Cc1ccccc1)C(=O)N[C@@H](CCSC)C(=O)N[C@@H](CCCCN)C(=O)N[C@@H](CCCCN)C(=O)NCC(N)=O [Compound 175] (Ac-DKEWILQKIYEIMRLCDELGHAEACMRVSDLIYEFMKKG-NH2; disulfide 16-25),,pIC50 [2]: 8.11
CC[C@H](C)[C@H](NC(=O)[C@H](CC(C)C)NC(=O)[C@H](CC(=O)O)NC(=O)[C@H](CO)NC(=O)[C@@H](NC(=O)[C@H](CCCNC(=N)N)NC(=O)[C@H](CCSC)NC(=O)[C@@H]1CSSC[C@H](NC(=O)[C@H](CC(C)C)NC(=O)[C@H](CCCNC(=N)N)NC(=O)[C@H](CCSC)NC(=O)[C@@H](NC(=O)[C@H](CCC(=O)O)NC(=O)[C@H](Cc2ccc(O)cc2)NC(=O)[C@@H](NC(=O)[C@H](CCCCN)NC(=O)[C@H](CCC(N)=O)NC(=O)[C@H](CC(C)C)NC(=O)[C@@H](NC(=O)[C@H](Cc2c[nH]c3ccccc23)NC(=O)[C@H](CCC(=O)O)NC(=O)[C@H](CCCCN)NC(=O)[C@H](CC(=O)O)NC(=O)[C@H](CO)NC(C)=O)[C@@H](C)CC)[C@@H](C)CC)[C@@H](C)CC)C(=O)N[C@@H](CC(=O)O)C(=O)N[C@@H](CCC(=O)O)C(=O)N[C@@H](CC(C)C)C(=O)NCC(=O)N[C@@H](Cc2c[nH]cn2)C(=O)N[C@@H](C)C(=O)N[C@@H](CCC(=O)O)C(=O)N[C@@H](C)C(=O)N1)C(C)C)C(=O)N[C@@H](Cc1ccc(O)cc1)C(=O)N[C@@H](CCC(=O)O)C(=O)N[C@@H](Cc1ccccc1)C(=O)N[C@@H](CCSC)C(=O)N[C@@H](CCCCN)C(=O)N[C@@H](CCCCN)C(=O)NCC(N)=O [Compound 176],,pIC50 [2]: 8.30
CC[C@H](C)[C@H](NC(=O)[C@H](CC(C)C)NC(=O)[C@H](CC(=O)O)NC(=O)[C@H](CO)NC(=O)[C@@H](NC(=O)[C@H](CCCNC(=N)N)NC(=O)[C@H](CCSC)NC(=O)[C@@H]1CSSC[C@H](NC(=O)[C@H](CC(C)C)NC(=O)[C@H](CCCNC(=N)N)NC(=O)[C@H](CCSC)NC(=O)[C@@H](NC(=O)[C@H](CCC(=O)O)NC(=O)[C@H](Cc2ccc(O)cc2)NC(=O)[C@@H](NC(=O)[C@H](CCCCN)NC(=O)[C@@H](N)CCC(N)=O)[C@@H](C)CC)[C@@H](C)CC)C(=O)N[C@@H](CC(=O)O)C(=O)N[C@@H](CCC(=O)O)C(=O)N[C@@H](CC(C)C)C(=O)NCC(=O)N[C@@H](Cc2c[nH]cn2)C(=O)N[C@@H](C)C(=O)N[C@@H](CCC(=O)O)C(=O)N[C@@H](C)C(=O)N1)C(C)C)C(=O)N[C@@H](Cc1ccc(O)cc1)C(=O)N[C@@H](CCC(=O)O)C(=O)N[C@@H](Cc1ccccc1)C(=O)N[C@@H](CCSC)C(=O)N[C@@H](CCCCN)C(=O)N[C@@H](CCCCN)C(=O)NCC(N)=O [Compound 177] (H-QKIYEIMRLCDELGHAEACMRVSDLIYEFMKKG-NH2; disulfide 10-19),< 5.00,
CC[C@H](C)[C@H](NC(=O)[C@H](CCCCN)NC(=O)[C@H](CCC(N)=O)NC(C)=O)C(=O)N[C@@H](Cc1ccc(O)cc1)C(=O)N[C@@H](CCC(=O)O)C(=O)N[C@H](C(=O)N[C@@H](CCSC)C(=O)N[C@@H](CCCNC(=N)N)C(=O)N[C@@H](CC(C)C)C(=O)N[C@H]1CSSC[C@@H](C(=O)N[C@@H](CCSC)C(=O)N[C@@H](CCCNC(=N)N)C(=O)N[C@H](C(=O)N[C@@H](CO)C(=O)N[C@@H](CC(=O)O)C(=O)N[C@@H](CC(C)C)C(=O)N[C@H](C(=O)N[C@@H](Cc2ccc(O)cc2)C(=O)N[C@@H](CCC(=O)O)C(=O)N[C@@H](Cc2ccccc2)C(=O)N[C@@H](CCSC)C(=O)N[C@@H](CCCCN)C(=O)N[C@@H](CCCCN)C(=O)NCC(N)=O)[C@@H](C)CC)C(C)C)NC(=O)[C@H](C)NC(=O)[C@H](CCC(=O)O)NC(=O)[C@H](C)NC(=O)[C@H](Cc2c[nH]cn2)NC(=O)CNC(=O)[C@H](CC(C)C)NC(=O)[C@H](CCC(=O)O)NC(=O)[C@H](CC(=O)O)NC1=O)[C@@H](C)CC [Compound 178] (Ac-QKIYEIMRLCDELGHAEACMRVSDLIYEFMKKG-NH2; disulfide 10-19),< 5.00,
CC[C@H](C)[C@H](N)C(=O)N[C@@H](CC(C)C)C(=O)N[C@@H](CCC(N)=O)C(=O)N[C@@H](CCCCN)C(=O)N[C@H](C(=O)N[C@@H](Cc1ccc(O)cc1)C(=O)N[C@@H](CCC(=O)O)C(=O)N[C@H](C(=O)N[C@@H](CCSC)C(=O)N[C@@H](CCCNC(=N)N)C(=O)N[C@@H](CC(C)C)C(=O)N[C@H]1CSSC[C@@H](C(=O)N[C@@H](CCSC)C(=O)N[C@@H](CCCNC(=N)N)C(=O)N[C@H](C(=O)N[C@@H](CO)C(=O)N[C@@H](CC(=O)O)C(=O)N[C@@H](CC(C)C)C(=O)N[C@H](C(=O)N[C@@H](Cc2ccc(O)cc2)C(=O)N[C@@H](CCC(=O)O)C(=O)N[C@@H](Cc2ccccc2)C(=O)N[C@@H](CCSC)C(=O)N[C@@H](CCCCN)C(=O)N[C@@H](CCCCN)C(=O)NCC(N)=O)[C@@H](C)CC)C(C)C)NC(=O)[C@H](C)NC(=O)[C@H](CCC(=O)O)NC(=O)[C@H](C)NC(=O)[C@H](Cc2c[nH]cn2)NC(=O)CNC(=O)[C@H](CC(C)C)NC(=O)[C@H](CCC(=O)O)NC(=O)[C@H](CC(=O)O)NC1=O)[C@@H](C)CC)[C@@H](C)CC [Compound 179] (H-ILQKIYEIMRLCDELGHAEACMRVSDLIYEFMKKG-NH2; disulfide 12-21),6.82 and 6.77,
CC[C@H](C)[C@H](NC(C)=O)C(=O)N[C@@H](CC(C)C)C(=O)N[C@@H](CCC(N)=O)C(=O)N[C@@H](CCCCN)C(=O)N[C@H](C(=O)N[C@@H](Cc1ccc(O)cc1)C(=O)N[C@@H](CCC(=O)O)C(=O)N[C@H](C(=O)N[C@@H](CCSC)C(=O)N[C@@H](CCCNC(=N)N)C(=O)N[C@@H](CC(C)C)C(=O)N[C@H]1CSSC[C@@H](C(=O)N[C@@H](CCSC)C(=O)N[C@@H](CCCNC(=N)N)C(=O)N[C@H](C(=O)N[C@@H](CO)C(=O)N[C@@H](CC(=O)O)C(=O)N[C@@H](CC(C)C)C(=O)N[C@H](C(=O)N[C@@H](Cc2ccc(O)cc2)C(=O)N[C@@H](CCC(=O)O)C(=O)N[C@@H](Cc2ccccc2)C(=O)N[C@@H](CCSC)C(=O)N[C@@H](CCCCN)C(=O)N[C@@H](CCCCN)C(=O)NCC(N)=O)[C@@H](C)CC)C(C)C)NC(=O)[C@H](C)NC(=O)[C@H](CCC(=O)O)NC(=O)[C@H](C)NC(=O)[C@H](Cc2c[nH]cn2)NC(=O)CNC(=O)[C@H](CC(C)C)NC(=O)[C@H](CCC(=O)O)NC(=O)[C@H](CC(=O)O)NC1=O)[C@@H](C)CC)[C@@H](C)CC [Compound 180] (Ac-ILQKIYEIMRLCDELGHAEACMRVSDLIYEFMKKG-NH2; disulfide 12-21),6.86,
